Series [1] can be described thus: rat plasma protein binding (PPB) assay. The class given is in vitro ADME. The settings on record: average, read-out: Rat Plasma Protein Binding % Bound Avg (converted). In short, it runs like this:
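Free fraction was measured in vitro as a readout of non-specific binding. Plasma binding used mouse, rat and human plasma; brain binding used mouse brain.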

Series [2] is described as follows: human plasma protein binding (PPB) assay. The settings on record: average, read-out: Human Plasma Protein Binding % Bound Avg (converted). The class given is in vitro ADME. As for the experimental part: We have adapted a previously reported cyclooxygenase enzymatic assay utilizing LCMS quantification of PGE2 as the product of COX-1 and COX2 catalyzed conversion of arachidonic acid to evaluate the binding properties of newly synthesized ligands [Cao, 2011]. These optimized and miniaturized (384-well plates) LCMS-based COX-1 and COX2 enzymatic assays enabled us to quickly evaluate newly synthesized ligands for COX2 binding affinity and selectivity vs COX-1. Using a shorter ligand-enzyme incubation time in the LCMS assay (2 minutes vs 10 minutes) also permitted us to prioritize ligands with faster binding kinetics. Considering the relatively slow on-rate kinetics of known coxibs, due to their 3-step binding mechanism [Marnett, 2009], we believe that optimizing this critical parameter will be key to the successful development of a COX2 PET tracer. Using these enzymatic assays, we have evaluated>200 newly synthesized ligands against COX2 and >20 ligands against COX-1. Another critical property necessary for a good PET radiotracer is to have low non-specific binding (NSB) to increase the free fraction and maximize the signal to noise ratio. This property can be evaluated using in-vitro protein binding assays, and we have now evaluated>50 newly synthesized ligands in mouse, rat and human plasma protein binding (PPB) assays as well as >15 ligands in a mouse brain protein binding (BPB) assay.

A further series can be described thus: PBS Solubility (no DMSO). The class given is physicochemical. The conditions noted are these: aqueous buffer, thermodynamic from solid, average.
Series [3] is described as follows: Human Microsome Stability. The class given is in vitro ADME. The conditions noted are these: human microsomes.
Series [4] is described as follows: Mouse Plasma Protein Stability (% Remaining). The class given is in vitro ADME. The settings on record: average.
Series [5] can be described thus: Rat Plasma Protein Stability (% Remaining). The class given is in vitro ADME. The settings on record: average.
The target in series [6] is T1, human recombinant COX2 (hCOX2) (UniProt P35354).
T1 sequence (P35354 1-604): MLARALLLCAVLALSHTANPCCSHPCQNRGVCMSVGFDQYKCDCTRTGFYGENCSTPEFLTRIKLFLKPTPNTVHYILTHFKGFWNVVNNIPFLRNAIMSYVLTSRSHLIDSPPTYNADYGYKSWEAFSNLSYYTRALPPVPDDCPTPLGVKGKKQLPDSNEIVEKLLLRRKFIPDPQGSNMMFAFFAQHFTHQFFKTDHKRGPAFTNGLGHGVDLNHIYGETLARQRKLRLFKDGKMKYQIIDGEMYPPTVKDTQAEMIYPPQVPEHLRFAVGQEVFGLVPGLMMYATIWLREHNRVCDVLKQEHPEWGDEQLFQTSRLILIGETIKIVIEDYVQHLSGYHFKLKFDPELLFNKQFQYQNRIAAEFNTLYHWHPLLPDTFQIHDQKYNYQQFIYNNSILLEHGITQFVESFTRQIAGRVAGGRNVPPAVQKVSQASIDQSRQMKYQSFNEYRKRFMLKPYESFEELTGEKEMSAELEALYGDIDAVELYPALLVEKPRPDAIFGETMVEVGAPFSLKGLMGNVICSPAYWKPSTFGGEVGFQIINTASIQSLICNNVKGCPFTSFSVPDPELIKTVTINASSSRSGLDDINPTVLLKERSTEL
Nature of the series: LCMS-based COX2 enzymatic inhibition assay (PGE2 quantification). The class given is biochemical. Also on record: COX2 2 minutes pge2/pge2d4 area ratio Avg; other: 2 minutes; readout pge2/pge2d4 area ratio; average; COX2 2 minutes pge2/pge2d4 area ratio Avg; LLE; average LLE; COX2 2 minutes pge2 area (counts) Avg; readout pge2 area (counts); other: 2 min; "ovine COX2 (oCOX2), human recombinant COX2 (hCOX2)". The conditions noted are these: 2 minutes; for COX2 2 minutes pge2/pge2d4 area ratio Avg. LLE / COX2 2 minutes pge2 area (counts) Avg. LLE: average LLE; for IC50: average. In a few lines: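 PGE2 formed from arachidonic acid (final 5 μM, 2 min) was measured by LC-MS-MS against DMSO controls. Enzyme (oCOX-1 0.1 μg or hCOX2 0.2 μg) with hematin/epinephrine cofactors at pH 8.0 was given 10 min at 37 °C with compound first. Twelve-point curves run three times gave IC50.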

[7] abbreviates: readout pge2/pge2d4 area ratio, read-out: COX2 2 minutes pge2/pge2d4 area ratio Avg. IC50.
[8] abbreviates: readout pge2 area (counts), read-out: COX2 2 minutes pge2 area (counts) Avg. IC50.

≈ marks a conversion by molar mass, not a printed value. Read-outs that look alike come from different tables or passages of the source.

For the compound `CS(=O)(=O)c1ccc(-c2cccc(NCc3ccoc3)n2)cc1` [Compound 47, N-(furan-3-ylmethyl)-6-(4-(methylsulfonyl)phenyl)pyridin-2-amine], the fraction unbound in series [1] is 0.068; in series [2], 0.071. The compound further came in with a solubility in “PBS Solubility (no DMSO)” of 88 µM (≈ 28.9 µg/mL). For the same compound, the “Human Microsome Stability % Remaining Avg” value in series [3] is given as 16%. Further, in series [4], the “Mouse Plasma Protein Stability % Remaining Avg” value turned out to be 107.5%. Further, the “Rat Plasma Protein Stability % Remaining Avg” value in series [5] is listed as 105.1%. Besides, the “COX2 2 minutes pge2/pge2d4 area ratio Avg. LLE” value in series [6] (readout pge2/pge2d4 area ratio) is 4.86. Further, the IC50 came out at 21.2 nM in series [6] (setting [7]) and 15.5 nM in series [6] (setting [8]). Further, the “COX2 2 minutes pge2 area (counts) Avg. LLE” value (“COX2 2 minutes pge2 area” for short) in series [6] (readout pge2 area (counts)) is listed as 4.974.
As for `CS(=O)(=O)c1ccc(-c2cccc(NCc3cccs3)n2)cc1` [Compound 24], the values for the fraction unbound in series [1] and in series [2] were 0.025 and 0.019, respectively. The compound further came in with a solubility in the series “PBS Solubility (no DMSO)” of 2.1 µM (≈ 0.723 µg/mL). The “Human Microsome Stability % Remaining Avg” value in series [3] is 18%. Further, the “Mouse Plasma Protein Stability % Remaining Avg” value in series [4] worked out at 114.1%. Besides, the “Rat Plasma Protein Stability % Remaining Avg” value in series [5] is given as 105.1%. Also, the IC50 in series [6] (setting [7]) amounted to 11.7 nM; in series [6] (setting [8]) it was 10.3 nM.
Regarding `CS(=O)(=O)c1ccc(-c2cc(F)cc(NCc3ccco3)n2)cc1` [Compound 14], the values for the fraction unbound in series [1] and in series [2] were 0.024 and 0.02, respectively. In the series “PBS Solubility (no DMSO)”, this compound showed a solubility of 6.1 µM (≈ 2.11 µg/mL). In addition, the “Human Microsome Stability % Remaining Avg” value in series [3] was 21%. Besides, the “Mouse Plasma Protein Stability % Remaining Avg” value in series [4] is given as 99%. Further, the “Rat Plasma Protein Stability % Remaining Avg” value in series [5] came out at 104%. Moreover, the “COX2 2 minutes pge2/pge2d4 area ratio Avg. LLE” value in series [6] (readout pge2/pge2d4 area ratio) was 5.172. The IC50 in series [6] (setting [7]) is 8.81 nM; in series [6] (setting [8]), 9.37 nM. Moreover, the “COX2 2 minutes pge2 area” value in series [6] (readout pge2 area (counts)) is 5.203.
As to `COc1ncc(NCc2cccs2)nc1-c1ccc(S(C)(=O)=O)cc1` [Compound 29], the fraction unbound in series [1] was 0.019; in series [2], 0.016. Moreover, in “PBS Solubility (no DMSO)”, the concentration in solution (solubility) was 2.8 µM (≈ 1.05 µg/mL). In addition, the “Human Microsome Stability % Remaining Avg” value in series [3] turned out to be 24%. Moreover, in series [4], the “Mouse Plasma Protein Stability % Remaining Avg” value is listed as 93.2%. Also, the “Rat Plasma Protein Stability % Remaining Avg” value in series [5] turned out to be 114.5%. In series [6] (readout pge2/pge2d4 area ratio), the “COX2 2 minutes pge2/pge2d4 area ratio Avg. LLE” value was determined as 5.399. In addition, the IC50 came to 14.9 nM in series [6] (setting [7]) and 14.5 nM in series [6] (setting [8]). In series [6] (readout pge2 area (counts)), the “COX2 2 minutes pge2 area” value is recorded as 5.474.
As for `CS(=O)(=O)c1ccc(-c2cccc(/C=C\c3ccoc3)n2)cc1` [Compound 35, 2-[(Z)-2-(furan-3-yl)ethenyl]-6-(4-methanesulfonylphenyl)pyr], the fraction unbound is 0.052 in series [1] and 0.024 in series [2]. The compound further gave a solubility in the series “PBS Solubility (no DMSO)” of 37 µM (≈ 12 µg/mL). For the same compound, in series [3], the “Human Microsome Stability % Remaining Avg” value amounted to 19%. The “Mouse Plasma Protein Stability % Remaining Avg” value in series [4] was 99.2%. The “Rat Plasma Protein Stability % Remaining Avg” value in series [5] turned out to be 94.1%. In series [6] (readout pge2/pge2d4 area ratio), the “COX2 2 minutes pge2/pge2d4 area ratio Avg. LLE” value was 4.232. Moreover, the figures for the IC50 in series [6] (setting [7]) and in series [6] (setting [8]) were 17.2 nM and 17.4 nM, respectively. In addition, the “COX2 2 minutes pge2 area” value in series [6] (readout pge2 area (counts)) is reported as 4.214.
With `CS(=O)(=O)c1ccc(-c2nc(NCc3cccs3)cc3ccoc23)cc1` [Compound 2], the fraction unbound is 0.009 in series [1] and 0.003 in series [2]. Further, in “PBS Solubility (no DMSO)”, the solubility amounted to 0.31 µM (≈ 0.119 µg/mL). For the same compound, the “Human Microsome Stability % Remaining Avg” value in series [3] is on record as 27%. In series [4], the “Mouse Plasma Protein Stability % Remaining Avg” value worked out at 108%. For the same compound, in series [5], the “Rat Plasma Protein Stability % Remaining Avg” value is 98%. Also, the “COX2 2 minutes pge2/pge2d4 area ratio Avg. LLE” value in series [6] (readout pge2/pge2d4 area ratio) worked out at 3.981. Besides, the IC50 in series [6] (setting [7]) came out at 5.13 nM; in series [6] (setting [8]) it was 5.45 nM. Further, in series [6] (readout pge2 area (counts)), the “COX2 2 minutes pge2 area” value is reported as 3.975.
For the compound `CS(=O)(=O)c1ccc(-c2cccc(OCc3cccs3)n2)cc1` [Compound 1, 2-(4-methanesulfonylphenyl)-6-[(thiophen-2-yl)methoxy]pyridine], the fraction unbound is 0.006 in series [1] and 0.002 in series [2]. Also, in the series “PBS Solubility (no DMSO)”, the solubility came to 1.1 µM (≈ 0.38 µg/mL). In addition, the “Human Microsome Stability % Remaining Avg” value in series [3] was determined as 38%. In addition, the “Mouse Plasma Protein Stability % Remaining Avg” value in series [4] amounted to 119.5%. Further, the “Rat Plasma Protein Stability % Remaining Avg” value in series [5] was 100%. The “COX2 2 minutes pge2/pge2d4 area ratio Avg. LLE” value in series [6] (readout pge2/pge2d4 area ratio) is given as 4.864. For the same compound, the IC50 in series [6] (setting [7]) is 3.27 nM; in series [6] (setting [8]) it was 3.66 nM. For the same compound, the “COX2 2 minutes pge2 area” value in series [6] (readout pge2 area (counts)) worked out at 4.806.
